Results on 31 molecules are retold here after patent US10597380B2, “Pyridazinone-based broad spectrum anti-influenza inhibitors” (Hoffmann-La Roche Inc., priority 2017, dated 2020).

The term IC50 denotes the concentration that inhibits the measured activity by half.

This experiment relates to Influenza A/WSN/33-Luciferase virus. Description: microbe, parasite or virus in culture. It counts as cell-based. The following applies: A549, 72 h, luciferase signal three days later, read-out: IC50 antiviral activity (Luciferase reporter assay). For orientation: Reporter assays use an easily measured gene product as a stand-in for the process of interest.
On to `CN(C)S(=O)(=O)CCCn1cccc(Nc2nn(-c3ccc(OC(F)(F)F)cc3)c(=O)c3ccccc23)c1=O` [Example 75, N,N-dimethyl-3-[2-oxo-3-[[4-oxo-3-[4-(trifluoromethoxy)phenyl]phthalazin-1-yl]amino]-1-pyridyl]propane-1-sulfonamide], for which the IC50 turned out to be 25 nM.
Consider `COC(=O)C(C)(C)Cn1cccc(Nc2nn(-c3ccc(OC(F)(F)F)cc3)c(=O)c3ccccc23)c1=O` [Example 4, methyl 2,2-dimethyl-3-[2-oxo-3-[[4-oxo-3-[4-(trifluoromethoxy)phenyl]phthalazin-1-yl]amino]-1-pyridyl]propanoate], for which the IC50 was 489 nM.
Under `CCc1ccc2c(Nc3cccn(C)c3=O)nn(-c3ccc(C(C)(C)C)cc3)c(=O)c2c1` [Example 20, 2-(4-tert-butylphenyl)-7-ethyl-4-[(1-methyl-2-oxo-3-pyridyl)amino]phthalazin-1-one] stands 4 nM; under `C=Cc1ccc2c(Nc3cccn(C)c3=O)nn(-c3ccc(OC(F)(F)F)cc3)c(=O)c2c1` [Example 84, 4-[(1-methyl-2-oxo-3-pyridyl)amino]-2-[4-(trifluoromethoxy)phenyl]-7-vinyl-phthalazin-1-one], 176 nM; under `CCOc1ccc(-n2nc(Nc3cccn(C)c3=O)c3c(c2=O)CCC3)cn1` [Example 55, 3-(6-ethoxy-3-pyridyl)-1-[(1-methyl-2-oxo-3-pyridyl)amino]-6,7-dihydro-5H-cyclopenta[d]pyridazin-4-one], 303 nM.
In the case of `Cn1cccc(Nc2nn(-c3ccc(C(F)(F)F)cc3F)c(=O)c3c2CCC3)c1=O` [Example 54, 3-[2-fluoro-4-(trifluoromethyl)phenyl]-1-[(1-methyl-2-oxo-3-pyridyl)amino]-6,7-dihydro-5H-cyclopenta[d]pyridazin-4-one] it was 52 nM; in that of `O=C(Cn1cccc(Nc2nn(-c3ccc(OC(F)(F)F)cc3)c(=O)c3ccccc23)c1=O)N1CCOCC1` [Example 88, 4-[[1-(2-Morpholino-2-oxo-ethyl)-2-oxo-3-pyridyl]amino]-2-[4-(trifluoromethoxy)phenyl]phthalazin-1-one], 23 nM.
In the case of `COc1ccc(-n2nc(Nc3cccn(C)c3=O)c3c(c2=O)CCC3)cc1OC` [Example 172, 3-(3,4-Dimethoxyphenyl)-1-[(1-methyl-2-oxo-3-pyridyl)amino]-6,7-dihydro-5H-cyclopenta[d]pyridazin-4-one] it was 3480 nM; in that of `Cn1cc(Cl)cc(Nc2nn(-c3ccc(OC(F)(F)F)cc3)c(=O)c3c2CCC3)c1=O` [Example 33, 1-[(5-chloro-1-methyl-2-oxo-3-pyridyl)amino]-3-[4-(trifluoromethoxy)phenyl]-6,7-dihydro-5H-cyclopenta[d]pyridazin-4-one], 6 nM.
As to `CCc1cc(Nc2nn(-c3ccc(OC(F)(F)F)cc3)c(=O)c3c2CCC3)c(=O)n(C)c1` [Example 35, 1-[(5-ethyl-1-methyl-2-oxo-3-pyridyl)amino]-3-[4-(trifluoromethoxy)phenyl]-6,7-dihydro-5H-cyclopenta[d]pyridazin-4-one], the IC50 worked out at 68 nM.
For the molecule `COC(=O)Cn1cccc(Nc2nn(-c3ccc(OC(F)(F)F)cc3)c(=O)c3c2CCCC3)c1=O` [Example 24, methyl 2-[2-oxo-3-[[4-oxo-3-[4-(trifluoromethoxy)phenyl]-5,6,7,8-tetrahydrophthalazin-1-yl]amino]-1-pyridyl]acetate], the IC50 came out at 22 nM.
Under `COC(=O)c1cc(Nc2nn(-c3ccc(OC(F)(F)F)cc3)c(=O)c3c2CCCC3)c(=O)n(C)c1` [Example 23, methyl 1-methyl-6-oxo-5-[[4-oxo-3-[4-(trifluoromethoxy)phenyl]-5,6,7,8-tetrahydrophthalazin-1-yl]amino]pyridine-3-carboxylate] stands 712 nM.
In the case of `CC(C)(C)OC(=O)N(CCn1cccc(Nc2nn(-c3ccc(OC(F)(F)F)cc3)c(=O)c3c2CCC3)c1=O)CC(=O)O` [Example 43, 2-[tert-butoxycarbonyl-[2-[2-oxo-3-[[4-oxo-3-[4-(trifluoromethoxy)phenyl]-6,7-dihydro-5H-cyclopenta[d]pyridazin-1-yl]amino]-1-pyridyl]ethyl]amino]acetic acid] it was 84 nM.
For the molecule `Cc1ncc(Nc2nn(-c3ccc(OC(F)(F)F)cc3)c(=O)c3ccccc23)c(=O)[nH]1` [Example 65, 4-[(2-methyl-6-oxo-1H-pyrimidin-5-yl)amino]-2-[4-(trifluoromethoxy)phenyl]phthalazin-1-one], the IC50 was found to be 405 nM.
As to `Cn1cccc(Nc2nn(-c3ccc(OC(F)(F)F)cc3)c(=O)c3c2CCC(O)C3)c1=O` (stereo not shown) [Example 164, 7-Hydroxy-4-[(1-methyl-2-oxo-3-pyridyl)amino]-2-[4-(trifluoromethoxy)phenyl]-5,6,7,8-tetrahydrophthalazin-1-one], the IC50 came out at 46 nM.
`COC(=O)CCn1cccc(Nc2nn(-c3ccc(OC(F)(F)F)cc3)c(=O)c3ccccc23)c1=O` [Example 69, methyl 3-[2-oxo-3-[[4-oxo-3-[4-(trifluoromethoxy)phenyl]phthalazin-1-yl]amino]-1-pyridyl]propanoate]: the IC50 worked out at 228 nM.
In the case of `CC(O)CN1CCc2c(Nc3cccn(C)c3=O)nn(-c3ccc(OC(F)(F)F)cc3)c(=O)c2C1` (stereo not shown) [Example 145, 6-(2-Hydroxypropyl)-1-[(1-methyl-2-oxo-3-pyridyl)amino]-3-[4-(trifluoromethoxy)phenyl]-7,8-dihydro-5H-pyrido[3,4-d]pyridazin-4-one] it was 129 nM; in that of `CCc1ccc2c(Nc3cccn(C)c3=O)nn(-c3ccc(OC(F)(F)F)cc3)c(=O)c2c1` [Example 82, 7-ethyl-4-[(1-methyl-2-oxo-3-pyridyl)amino]-2-[4-(trifluoromethoxy)phenyl]phthalazin-1-one], 79 nM.
As to `O=C(O)CCCn1cncc(Nc2nn(-c3ccc(OC(F)(F)F)cc3)c(=O)c3c2CCC3)c1=O` [Example 124, 4-[6-oxo-5-[[4-oxo-3-[4-(trifluoromethoxy)phenyl]-6,7-dihydro-5H-cyclopenta[d]pyridazin-1-yl]amino]pyrimidin-1-yl]butanoic acid], the IC50 was found to be 4930 nM.
Under `CN1CCc2c(c(Nc3cccn(C)c3=O)nn(-c3ccc(OC(F)(F)F)cc3)c2=O)C1` [Example 133, 6-Methyl-4-[(1-methyl-2-oxo-3-pyridyl)amino]-2-[4-(trifluoromethoxy)phenyl]-7,8-dihydro-5H-pyrido[3,4-d]pyridazin-1-one] stands 538 nM; under `O=c1c(Nc2nn(-c3ccc(OC(F)(F)F)cc3)c(=O)c3ccccc23)cccn1CCO` [Example 163, 4-[[1-(2-Hydroxyethyl)-2-oxo-3-pyridyl]amino]-2-[4-(trifluoromethoxy)phenyl]phthalazin-1-one], 62 nM; under `Cn1cccc(Nc2nn(-c3ccc(OC(F)(F)F)cc3)c(=O)c3c2CN(C=O)CC3)c1=O` [Example 154, 4-[(1-Methyl-2-oxo-3-pyridyl)amino]-1-oxo-2-[4-(trifluoromethoxy)phenyl]-7,8-dihydro-5H-pyrido[3,4-d]pyridazine-6-carbaldehyde], 144 nM.
Under `O=c1c(Nc2nn(-c3ccc(OC(F)(F)F)cc3)c(=O)c3c2CCC3)cccn1CCCO` [Example 49, 1-[[1-(3-hydroxypropyl)-2-oxo-3-pyridyl]amino]-3-[4-(trifluoromethoxy)phenyl]-6,7-dihydro-5H-cyclopenta[d]pyridazin-4-one] stands 16 nM; under `CC(C)(C)OC(=O)NCCn1cccc(Nc2nn(-c3ccc(OC(F)(F)F)cc3)c(=O)c3c2CCC3)c1=O` [Example 45, tert-butyl N-[2-[2-oxo-3-[[4-oxo-3-[4-(trifluoromethoxy)phenyl]-6,7-dihydro-5H-cyclopenta[d]pyridazin-1-yl]amino]-1-pyridyl]ethyl]carbamate], 286 nM; under `CNC(=O)COCCn1cccc(Nc2nn(-c3ccc(OC(F)(F)F)cc3)c(=O)c3ccccc23)c1=O` [Example 102, N-methyl-2-[2-[2-oxo-3-[[4-oxo-3-[4-(trifluoromethoxy)phenyl]phthalazin-1-yl]amino]-1-pyridyl]ethoxy]acetamide], 37 nM.
As for `CCn1cncc(Nc2nn(-c3ccc(OC(F)(F)F)cc3)c(=O)c3c2CCN(C(C)=O)C3)c1=O` [Example 85, 6-acetyl-1-[(1-ethyl-6-oxo-pyrimidin-5-yl)amino]-3-[4-(trifluoromethoxy)phenyl]-7,8-dihydro-5H-pyrido[3,4-d]pyridazin-4-one], the IC50 was 56 nM.
For the molecule `CC(=O)N1CCc2c(c(Nc3cccn(C)c3=O)nn(-c3ccc(OC(F)(F)F)cc3)c2=O)C1` [Example 149, 6-Acetyl-4-[(1-methyl-2-oxo-3-pyridyl)amino]-2-[4-(trifluoromethoxy)phenyl]-7,8-dihydro-5H-pyrido[3,4-d]pyridazin-1-one], the half-inhibitory concentration (IC50) is 71 nM.
Regarding `O=C(O)CCCn1cc(Cl)cc(Nc2nn(-c3ccc(OC(F)(F)F)cc3)c(=O)c3c2CCC3)c1=O` [Example 117, 4-[5-chloro-2-oxo-3-[[4-oxo-3-[4-(trifluoromethoxy)phenyl]-6,7-dihydro-5H-cyclopenta[d]pyridazin-1-yl]amino]-1-pyridyl]butanoic acid], the concentration for half-maximal inhibition (IC50) is 114 nM.
In the case of `Cn1cccc(Nc2nn(-c3ccc(C(C)(C)C)nc3)c(=O)c3c2CCCC3)c1=O` [Example 26, 2-(6-tert-butyl-3-pyridyl)-4-[(1-methyl-2-oxo-3-pyridyl)amino]-5,6,7,8-tetrahydrophthalazin-1-one] it was 25 nM; in that of `O=c1c(Nc2nn(-c3ccc(OC(F)(F)F)cc3)c(=O)c3c2CCC3)cccn1C[C@@H]1CNCCO1` [Example 135, 1-[[1-[[(2S)-Morpholin-2-yl]methyl]-2-oxo-3-pyridyl]amino]-3-[4-(trifluoromethoxy)phenyl]-6,7-dihydro-5H-cyclopenta[d]pyridazin-4-one], 85 nM.
In the case of `Cc1cc(Nc2nn(-c3ccc(OC(F)(F)F)cc3)c(=O)c3c2CCC3)c(=O)n(C)c1` [Example 32, 1-[(1,5-dimethyl-2-oxo-3-pyridyl)amino]-3-[4-(trifluoromethoxy)phenyl]-6,7-dihydro-5H-cyclopenta[d]pyridazin-4-one] it was 12 nM.
